Where a name gives a salt, the structure may show the parent alone. Calls of active or inactive are those of the source.
Experiments:
[1] = target: T1, Oxysterols receptor LXR-beta (Homo sapiens, UniProt P55055); format: functional, cell-based;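 note: Cell-based luminescence dose-response assay of agonist activity at LXR, run as a confirmatory counterscreen to a daf-12 agonist screen; agonist potency from rising luciferase signal of a Gal4-LXR reporter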
T1 sequence (P55055 whole entry): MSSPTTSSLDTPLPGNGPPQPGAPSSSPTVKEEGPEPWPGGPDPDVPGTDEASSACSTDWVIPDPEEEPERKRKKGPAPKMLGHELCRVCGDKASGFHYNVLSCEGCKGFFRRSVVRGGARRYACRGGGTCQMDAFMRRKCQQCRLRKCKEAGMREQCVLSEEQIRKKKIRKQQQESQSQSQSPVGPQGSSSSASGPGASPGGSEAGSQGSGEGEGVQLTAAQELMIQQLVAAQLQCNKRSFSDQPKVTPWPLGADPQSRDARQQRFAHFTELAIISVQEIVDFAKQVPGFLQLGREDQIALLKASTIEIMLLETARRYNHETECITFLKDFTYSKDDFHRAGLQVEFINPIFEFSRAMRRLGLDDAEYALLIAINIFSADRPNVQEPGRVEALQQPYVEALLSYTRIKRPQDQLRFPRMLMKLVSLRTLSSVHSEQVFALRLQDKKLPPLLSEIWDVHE

Aminopeptidase N = target: T2, Aminopeptidase N (Plasmodium falciparum FcB1/Columbia, UniProt O96935); assay: malaria alanyl aminopeptidase activity blockers – biochemical, fluorogenic H-Leu-NHMec substrate, 1536-well (AID 1445); design: species or system Plasmodium falciparum 3D7, 3D7
T2 sequence (O96935 whole entry): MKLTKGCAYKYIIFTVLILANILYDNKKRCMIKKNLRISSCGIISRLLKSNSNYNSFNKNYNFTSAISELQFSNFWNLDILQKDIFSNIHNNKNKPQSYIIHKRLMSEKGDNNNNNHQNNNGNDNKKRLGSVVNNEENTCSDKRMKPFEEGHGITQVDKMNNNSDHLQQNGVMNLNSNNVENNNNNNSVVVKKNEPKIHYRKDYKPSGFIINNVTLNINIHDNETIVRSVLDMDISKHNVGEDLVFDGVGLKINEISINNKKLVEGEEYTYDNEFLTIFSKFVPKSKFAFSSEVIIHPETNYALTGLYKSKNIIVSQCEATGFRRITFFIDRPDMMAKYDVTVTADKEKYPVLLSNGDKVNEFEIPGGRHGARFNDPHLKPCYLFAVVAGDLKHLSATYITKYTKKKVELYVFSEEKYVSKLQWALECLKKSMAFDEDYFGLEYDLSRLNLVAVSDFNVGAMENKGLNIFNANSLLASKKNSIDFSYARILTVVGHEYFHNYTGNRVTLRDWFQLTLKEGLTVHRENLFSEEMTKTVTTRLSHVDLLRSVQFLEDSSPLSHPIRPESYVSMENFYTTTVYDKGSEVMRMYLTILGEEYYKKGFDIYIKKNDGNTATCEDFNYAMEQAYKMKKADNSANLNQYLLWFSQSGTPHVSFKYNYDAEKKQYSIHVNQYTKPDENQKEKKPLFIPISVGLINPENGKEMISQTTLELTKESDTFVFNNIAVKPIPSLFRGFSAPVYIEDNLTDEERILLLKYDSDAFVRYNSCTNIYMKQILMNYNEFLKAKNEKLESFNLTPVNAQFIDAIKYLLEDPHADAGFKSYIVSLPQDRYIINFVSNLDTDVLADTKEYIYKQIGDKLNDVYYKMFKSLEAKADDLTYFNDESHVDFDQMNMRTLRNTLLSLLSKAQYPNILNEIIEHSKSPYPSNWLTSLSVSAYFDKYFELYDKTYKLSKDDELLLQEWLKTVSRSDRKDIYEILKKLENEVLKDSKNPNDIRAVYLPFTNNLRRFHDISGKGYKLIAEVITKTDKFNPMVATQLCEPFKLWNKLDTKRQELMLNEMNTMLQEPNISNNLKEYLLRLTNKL

[2] = target: T1, Oxysterols receptor LXR-beta; assay: LXR agonists, Gal4 luciferase reporter, dose response, counter-screen for ssDAF-12 agonist project, cell-based, luminescence, HEK293, S. stercoralis campaign (AID 720737); format: functional; settings: read-out: IC50 (the source's name)
[3] = Luminescence-based cell-based high throughput dose response assay to identify activators of the DAF-12 from the parasite S. stercoralis (ssDAF-12).; format: functional
[4] = target: Voltage-dependent T-type calcium channel subunit alpha-1H (Homo sapiens, UniProt O95180); format: functional;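 note: channel activity triggered by adding a high calcium stimulation buffer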
Voltage-dependent T-type calcium channel subunit alpha-1H, sequence (O95180 whole entry): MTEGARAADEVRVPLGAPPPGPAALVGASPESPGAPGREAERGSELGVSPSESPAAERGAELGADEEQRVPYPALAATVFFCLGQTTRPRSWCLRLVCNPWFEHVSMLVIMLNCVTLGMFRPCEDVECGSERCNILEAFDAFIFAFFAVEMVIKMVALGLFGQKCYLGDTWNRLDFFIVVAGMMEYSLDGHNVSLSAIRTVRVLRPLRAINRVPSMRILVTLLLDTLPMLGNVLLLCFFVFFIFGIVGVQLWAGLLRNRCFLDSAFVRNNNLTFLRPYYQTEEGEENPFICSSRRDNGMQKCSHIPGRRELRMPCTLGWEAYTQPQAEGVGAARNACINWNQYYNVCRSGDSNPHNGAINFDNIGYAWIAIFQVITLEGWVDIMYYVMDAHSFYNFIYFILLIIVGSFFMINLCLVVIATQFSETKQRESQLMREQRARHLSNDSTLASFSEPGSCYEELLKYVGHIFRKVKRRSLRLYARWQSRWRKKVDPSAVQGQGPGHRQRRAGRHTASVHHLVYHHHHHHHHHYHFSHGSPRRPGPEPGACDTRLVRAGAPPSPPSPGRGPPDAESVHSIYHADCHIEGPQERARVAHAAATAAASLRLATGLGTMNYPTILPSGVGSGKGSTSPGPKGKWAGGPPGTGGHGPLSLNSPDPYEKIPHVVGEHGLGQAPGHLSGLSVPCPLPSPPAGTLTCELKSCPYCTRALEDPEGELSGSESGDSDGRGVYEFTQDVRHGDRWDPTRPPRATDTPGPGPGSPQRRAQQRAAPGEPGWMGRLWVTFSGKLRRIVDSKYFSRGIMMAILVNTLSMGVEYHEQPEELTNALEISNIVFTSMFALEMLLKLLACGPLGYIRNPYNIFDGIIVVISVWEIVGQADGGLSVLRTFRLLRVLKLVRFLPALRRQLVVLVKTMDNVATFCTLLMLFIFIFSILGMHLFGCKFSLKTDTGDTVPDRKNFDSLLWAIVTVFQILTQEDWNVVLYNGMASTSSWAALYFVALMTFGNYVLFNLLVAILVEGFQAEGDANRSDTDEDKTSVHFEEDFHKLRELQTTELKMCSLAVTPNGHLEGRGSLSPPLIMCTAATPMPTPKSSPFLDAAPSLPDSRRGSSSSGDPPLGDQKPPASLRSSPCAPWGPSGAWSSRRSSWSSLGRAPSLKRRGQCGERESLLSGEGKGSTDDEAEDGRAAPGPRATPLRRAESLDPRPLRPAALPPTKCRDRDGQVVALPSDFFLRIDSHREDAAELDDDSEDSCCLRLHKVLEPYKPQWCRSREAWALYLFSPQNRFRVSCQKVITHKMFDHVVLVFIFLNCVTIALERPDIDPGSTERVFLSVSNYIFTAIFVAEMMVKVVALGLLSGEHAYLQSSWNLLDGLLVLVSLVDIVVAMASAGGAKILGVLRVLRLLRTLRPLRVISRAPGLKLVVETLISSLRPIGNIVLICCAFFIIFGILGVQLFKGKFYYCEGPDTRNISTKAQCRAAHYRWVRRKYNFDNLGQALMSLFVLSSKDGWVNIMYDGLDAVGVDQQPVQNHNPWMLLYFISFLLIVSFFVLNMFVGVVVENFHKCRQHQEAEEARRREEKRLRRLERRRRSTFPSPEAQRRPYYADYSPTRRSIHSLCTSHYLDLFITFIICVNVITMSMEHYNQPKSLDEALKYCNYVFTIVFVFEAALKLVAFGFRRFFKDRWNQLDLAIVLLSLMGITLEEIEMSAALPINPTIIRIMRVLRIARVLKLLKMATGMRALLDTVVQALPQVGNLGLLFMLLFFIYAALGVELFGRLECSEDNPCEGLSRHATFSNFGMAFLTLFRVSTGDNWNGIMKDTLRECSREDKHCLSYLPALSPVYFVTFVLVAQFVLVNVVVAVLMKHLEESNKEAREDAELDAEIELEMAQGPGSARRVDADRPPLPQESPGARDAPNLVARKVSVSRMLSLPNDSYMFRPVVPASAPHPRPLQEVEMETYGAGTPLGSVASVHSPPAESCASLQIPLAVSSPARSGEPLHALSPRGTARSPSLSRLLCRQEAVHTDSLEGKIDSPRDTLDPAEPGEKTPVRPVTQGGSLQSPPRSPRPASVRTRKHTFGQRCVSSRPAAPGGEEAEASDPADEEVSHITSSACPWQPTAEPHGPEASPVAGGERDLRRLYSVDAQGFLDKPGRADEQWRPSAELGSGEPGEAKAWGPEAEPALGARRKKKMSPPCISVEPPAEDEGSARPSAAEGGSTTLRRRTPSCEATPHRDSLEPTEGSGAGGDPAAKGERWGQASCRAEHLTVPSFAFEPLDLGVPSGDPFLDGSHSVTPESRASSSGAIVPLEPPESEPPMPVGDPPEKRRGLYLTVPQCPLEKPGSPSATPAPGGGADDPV

[5] = HIV-1 Vif–A3G interaction blockers – biochemical, TR-FRET, GST-Vif 1-94, biotin-A3G peptide, dose response retest, primary screen (AID 1117319); format: functional;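 note: TR-FRET signal of purified GST-Vif binding a biotinylated A3G peptide; inhibitors lower the FRET signal by blocking Vif and A3G binding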
Cytochrome P450 3A4 = Cytochrome P450 3A4 (Homo sapiens, UniProt P08684); settings: Potency;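 note: confirmatory qHTS run detecting inhibitors and substrates of CYP3A4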
Cytochrome P450 3A4, sequence (P08684 whole entry): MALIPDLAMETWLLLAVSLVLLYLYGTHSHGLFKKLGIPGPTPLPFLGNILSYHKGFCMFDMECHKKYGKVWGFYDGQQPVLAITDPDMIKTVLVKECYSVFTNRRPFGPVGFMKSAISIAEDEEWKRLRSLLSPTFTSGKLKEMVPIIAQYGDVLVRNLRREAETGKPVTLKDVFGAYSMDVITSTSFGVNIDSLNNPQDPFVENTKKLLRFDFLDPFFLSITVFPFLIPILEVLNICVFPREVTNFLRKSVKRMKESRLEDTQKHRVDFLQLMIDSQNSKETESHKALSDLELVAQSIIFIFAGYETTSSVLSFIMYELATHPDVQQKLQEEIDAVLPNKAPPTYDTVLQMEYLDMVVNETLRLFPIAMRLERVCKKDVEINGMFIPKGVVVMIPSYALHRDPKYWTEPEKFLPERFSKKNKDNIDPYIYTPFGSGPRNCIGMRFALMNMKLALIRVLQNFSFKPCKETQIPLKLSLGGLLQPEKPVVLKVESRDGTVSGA

Leucine aminopeptidase = target: T3, Leucine aminopeptidase (Plasmodium falciparum 3D7, UniProt Q8IL11); assay: P. falciparum M17LAP inhibitors, primary screen, biochemical, fluorogenic H-Leu-NHMec substrate, 1536-well (AID 1619); format: functional
T3 sequence (Q8IL11 whole entry): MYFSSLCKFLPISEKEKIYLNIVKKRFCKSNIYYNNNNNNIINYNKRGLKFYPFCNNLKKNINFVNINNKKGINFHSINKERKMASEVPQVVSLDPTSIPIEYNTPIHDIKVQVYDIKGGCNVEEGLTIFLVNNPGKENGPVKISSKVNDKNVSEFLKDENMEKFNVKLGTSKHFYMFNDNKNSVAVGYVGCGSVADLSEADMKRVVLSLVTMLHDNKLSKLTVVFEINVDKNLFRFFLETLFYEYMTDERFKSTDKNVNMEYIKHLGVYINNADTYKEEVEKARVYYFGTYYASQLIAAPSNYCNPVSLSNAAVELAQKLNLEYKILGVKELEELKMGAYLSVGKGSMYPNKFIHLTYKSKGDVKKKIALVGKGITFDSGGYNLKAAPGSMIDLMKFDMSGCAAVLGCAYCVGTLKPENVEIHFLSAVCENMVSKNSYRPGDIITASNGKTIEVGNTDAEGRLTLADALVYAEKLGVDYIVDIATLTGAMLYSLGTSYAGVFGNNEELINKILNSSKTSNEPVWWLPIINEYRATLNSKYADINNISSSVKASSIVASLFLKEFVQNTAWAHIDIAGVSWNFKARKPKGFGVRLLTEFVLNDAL

[6] = target: DNA dC->dU-editing enzyme APOBEC-3G (Homo sapiens, UniProt Q9HC16); assay: Dose Response confirmation of small molecule APOBEC3G DNA Deaminase Inhibitors via a fluorescence-based single-stranded DNA deaminase assay. [Related pubchem assays (depositor defined):AID493012, AID493028]; format: functional
DNA dC->dU-editing enzyme APOBEC-3G, sequence (Q9HC16 whole entry): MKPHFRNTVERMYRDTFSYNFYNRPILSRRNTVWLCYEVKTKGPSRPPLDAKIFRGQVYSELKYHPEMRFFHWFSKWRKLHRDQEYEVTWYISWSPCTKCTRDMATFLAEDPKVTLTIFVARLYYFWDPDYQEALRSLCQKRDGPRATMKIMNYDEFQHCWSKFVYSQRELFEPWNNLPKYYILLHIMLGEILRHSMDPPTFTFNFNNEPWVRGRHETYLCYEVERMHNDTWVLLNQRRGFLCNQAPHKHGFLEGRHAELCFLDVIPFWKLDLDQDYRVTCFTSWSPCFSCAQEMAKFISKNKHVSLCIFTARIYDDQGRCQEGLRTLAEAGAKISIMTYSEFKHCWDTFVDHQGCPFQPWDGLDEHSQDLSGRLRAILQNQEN

[7] = target: T4, Heat shock factor protein 1 (Mus musculus, UniProt P38532); assay: enhancement of HSF1-driven luciferase signal – cell-based, NIH3T3, luminescence, dose retest, confirmation (AID 435004); format: functional;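 note: stress induced by proteasome inhibitor MG132 added 30 min after compound; luciferase reporter driven by HSF1 response element in NIH3T3 cells; actives raise luminescence as potentiators of the MG132 stress response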
T4 sequence (P38532 whole entry): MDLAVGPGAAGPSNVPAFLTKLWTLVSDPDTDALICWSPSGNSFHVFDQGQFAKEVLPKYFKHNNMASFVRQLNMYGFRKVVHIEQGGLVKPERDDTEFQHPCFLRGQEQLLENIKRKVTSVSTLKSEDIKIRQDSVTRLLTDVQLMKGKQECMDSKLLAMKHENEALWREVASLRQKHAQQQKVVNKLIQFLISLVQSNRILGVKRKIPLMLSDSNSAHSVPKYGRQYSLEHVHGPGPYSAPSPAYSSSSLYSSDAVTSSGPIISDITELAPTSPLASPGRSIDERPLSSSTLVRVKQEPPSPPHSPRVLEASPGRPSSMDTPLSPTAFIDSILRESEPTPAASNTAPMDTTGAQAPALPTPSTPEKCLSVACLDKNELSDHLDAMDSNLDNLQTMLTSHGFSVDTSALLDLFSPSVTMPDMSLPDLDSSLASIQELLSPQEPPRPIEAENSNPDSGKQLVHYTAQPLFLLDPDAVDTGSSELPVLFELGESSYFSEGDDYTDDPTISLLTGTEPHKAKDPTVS

Cytochrome P450 2C9 = Cytochrome P450 2C9 (Homo sapiens, UniProt P11712)
Cytochrome P450 2C9, sequence (P11712 whole entry): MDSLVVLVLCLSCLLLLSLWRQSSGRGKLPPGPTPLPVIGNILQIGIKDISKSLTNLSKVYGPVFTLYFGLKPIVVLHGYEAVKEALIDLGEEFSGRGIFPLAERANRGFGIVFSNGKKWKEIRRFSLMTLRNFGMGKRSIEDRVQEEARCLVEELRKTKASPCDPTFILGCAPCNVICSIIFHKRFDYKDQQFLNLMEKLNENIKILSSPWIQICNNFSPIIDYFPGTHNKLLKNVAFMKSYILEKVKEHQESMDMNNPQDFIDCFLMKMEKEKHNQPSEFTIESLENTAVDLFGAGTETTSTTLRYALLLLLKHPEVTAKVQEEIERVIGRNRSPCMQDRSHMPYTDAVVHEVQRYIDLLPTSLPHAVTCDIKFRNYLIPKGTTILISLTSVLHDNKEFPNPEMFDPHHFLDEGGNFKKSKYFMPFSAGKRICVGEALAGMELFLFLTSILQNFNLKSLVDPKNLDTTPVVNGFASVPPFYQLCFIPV

[8] = target: T4, Heat shock factor protein 1; assay: decrease of HSF1-responsive luciferase luminescence – cell-based, NIH3T3, dose retest, confirmation (AID 2382); format: functional;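 note: NIH3T3 fibroblasts with HSF1-driven luciferase reporter stressed by proteasome inhibitor MG132; luminescence from HSF1-driven luciferase expression after 8 hours of MG132 stress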
Albumin = Albumin (Bos taurus, UniProt P02769); assay: Counterscreen for inhibitors of T-cell receptor (TCR)-CD3 interaction: Fluorescence-based biochemical high throughput dose response assay to identify inhibitors of T-cell receptor (TCR)-CD3 interaction using a TAMRA-labeled BSA probe.; format: functional
Albumin, sequence (P02769 whole entry): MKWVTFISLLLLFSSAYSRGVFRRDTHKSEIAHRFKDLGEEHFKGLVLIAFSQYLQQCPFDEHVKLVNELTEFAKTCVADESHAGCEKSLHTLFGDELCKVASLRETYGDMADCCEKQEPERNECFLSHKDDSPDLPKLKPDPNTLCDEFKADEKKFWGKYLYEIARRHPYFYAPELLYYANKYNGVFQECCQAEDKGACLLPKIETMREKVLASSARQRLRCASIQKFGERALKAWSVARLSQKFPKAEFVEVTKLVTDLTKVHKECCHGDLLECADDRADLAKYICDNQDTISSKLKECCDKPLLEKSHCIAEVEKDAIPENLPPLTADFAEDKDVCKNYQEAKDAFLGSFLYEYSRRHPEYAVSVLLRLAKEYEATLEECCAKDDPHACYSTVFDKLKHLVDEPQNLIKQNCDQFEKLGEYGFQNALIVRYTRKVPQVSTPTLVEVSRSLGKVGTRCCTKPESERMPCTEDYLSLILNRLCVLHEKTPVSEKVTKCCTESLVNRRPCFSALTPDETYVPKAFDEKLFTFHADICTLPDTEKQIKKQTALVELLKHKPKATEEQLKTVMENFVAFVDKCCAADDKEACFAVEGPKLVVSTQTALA

[9] = Luminescence Cell-Based Dose Retest to Confirm Inhibitors of Cancer Stem Cells. [Related pubchem assays (depositor defined):AID2717, AID2721]; format: functional; settings: Homo sapiens
[10] = viability loss of HPDE-C7K cells – cell-based, fluorescence, HTS, primary screen (AID 431); format: functional; settings: Homo sapiens
[11] = HPDE-C7 pancreatic duct cell viability loss – fluorescence, HTS (AID 430); format: functional, cell-based; settings: Homo sapiens

Structure (SMILES): CC(C)NC1=NN=C(c2cccs2)CS1
- EC50 (cells): > 67.6 µM (inactive)
- EC50 [1]: > 67.6 µM (inactive)

Structure (SMILES): COc1ccc(OC)c(C2C3=C(O)CCCC3=NC(C)=C2C(=O)Nc2cccnc2)c1 (centres undefined)
- IC50 (Aminopeptidase N): 52.9 µM (active)

Structure (SMILES): CN1C(=O)C(CC(=O)Nc2ccc(F)cc2)N(Cc2cccs2)C1=S (centres undefined)
- EC50 [2]: > 67.5 µM (inactive)
- IC50 [3]: > 67.5 µM (inactive)

Structure (SMILES): CN(C)c1ccc(-c2cc3ccccc3c(=O)o2)cc1
- EC50 (cells): > 67.6 µM (inactive)
- EC50 [1]: > 67.6 µM (inactive)

Structure (SMILES): O=Cc1cn(CC(=O)N2CCCc3ccccc32)c2ccccc12
- IC50 (Aminopeptidase N): 22.8 µM (active)

Structure (SMILES): Cc1cccc(OCCNC(=O)c2cncc(Br)c2)c1
- EC50 [2]: > 67.5 µM (inactive)
- IC50 [3]: > 67.5 µM (inactive)

Structure (SMILES): CCCC(c1nnnn1Cc1ccco1)N1CCN(c2cc(Cl)ccc2C)CC1 (centres undefined)
- EC50 [4]: 0.728 µM (active)

Structure (SMILES): CCn1c(SCc2nc(-c3ccccc3)no2)nc2ccccc21
- EC50 [4]: 331 µM (active)

Structure (SMILES): CCCCN(C(=O)CSc1cc(C)c2ccc(OC)cc2n1)c1c(N)n(Cc2ccccc2)c(=O)[nH]c1=O
- EC50 [2]: > 67.5 µM (inactive)
- IC50 [3]: > 67.5 µM (inactive)

Structure (SMILES): COc1ccc2cc(C3(C)NC(=O)N(CC(=O)Nc4c(C)n(C)n(-c5ccccc5)c4=O)C3=O)ccc2c1 (centres undefined)
- IC50 [5]: > 100 µM (active)

Structure (SMILES): COC(=O)NC(/C=C/c1ccccc1)[C@]1(C(C)=O)CCCC1=O (some centres undefined)
- AC50 (Cytochrome P450 3A4): 3.98 µM (inconclusive)

Structure (SMILES): CN(C)S(=O)(=O)N(CC(=O)Nc1ccc2ccccc2c1)c1ccccc1
- EC50 [4]: 3.79 µM (active)

Structure (SMILES): Cc1c(C(c2ccccc2Cl)c2c(O)oc3ccccc3c2=O)c(=O)n(-c2ccccc2)n1C (centres undefined)
- IC50 (Aminopeptidase N): 77.1 µM (active)

Structure (SMILES): Cc1oc(-c2ccc(-c3ccccc3)cc2)nc1CN(CCO)C(C)C
- EC50 (cells): > 67.5 µM (inactive)
- EC50 [1]: > 67.5 µM (inactive)

Structure (SMILES): CN(C)NC1CCS(=O)(=O)C1 (centres undefined)
- IC50 [5]: > 100 µM (active)

Structure (SMILES): Sc1nnc(-c2ccco2)[nH]1
- IC50 (Leucine aminopeptidase): 11 µM (active)
- IC50 [6]: 12 µM (active)

Structure (SMILES): COC(=O)[C@@H](Cc1c[nH]c2ccccc12)NC(=O)c1ccc2c(c1)OCO2
- EC50 [2]: > 67.6 µM (inactive)
- IC50 [3]: > 67.6 µM (inactive)
- EC50 [7]: > 260 µM (inactive)

Structure (SMILES): O=C(NCc1ccc2c(c1)OCO2)C1CC(c2cccc(Br)c2)=NO1 (centres undefined)
- AC50 (Cytochrome P450 2C9): inconclusive
- EC50 [4]: 1.96 µM (active)

Structure (SMILES): CCOc1ccc2[nH]c(SCc3ccc(C(=O)OC)o3)nc2c1
- EC50 [7]: > 260 µM (inactive)
- IC50 [5]: > 100 µM (active)

Structure (SMILES): c1ccc(N2CC3COc4ccccc4C3=N2)cc1 (centres undefined)
- EC50 (cells): > 67.4 µM (inactive)
- EC50 [1]: > 67.4 µM (inactive)

Structure (SMILES): CC(/C=N/NC(=O)Cn1cnc2ccccc21)=C\c1ccccc1
- EC50 [8]: > 195 µM (not active)
- EC50 [2]: > 67.5 µM (inactive)
- IC50 [3]: > 67.5 µM (inactive)

Structure (SMILES): O=C(CSc1nnc(-c2ccccc2O)n1Cc1ccccc1)NNC(=O)c1ccccc1O
- IC50 (Albumin): > 94.1 µM (inactive)
- AC50 [9]: 7.6 µM (active)
- IC50 (Aminopeptidase N): 130 µM (active)

Structure (SMILES): NNCc1ccccc1 [BENZYLHYDRAZINE HYDROCHLORIDE]
- AC50 (Cytochrome P450 3A4): 7.94 µM (inconclusive)

Structure (SMILES): O=c1c(O)c(-c2ccccc2)oc2ccccc12 [FLAVONOL]
- AC50 (Cytochrome P450 3A4): 25.1 µM (inconclusive)

Structure (SMILES): COc1cc2c(cc1OC)C(=O)OC2 [METAMECONINE]
- AC50 (Cytochrome P450 3A4): 12.6 µM (inconclusive)

Structure (SMILES): CC1=C(/C=C/C(C)=C/C=C/C(C)=C/C(=O)O)C(C)(C)CCC1 [TRETINOIN]
- AC50 (Cytochrome P450 3A4): 39.8 µM (inconclusive)
- EC50 [10]: > 20 µM (not active)
- EC50 [11]: > 20 µM (not active)

Reference: ChEMBL document CHEMBL1201862, “PubChem BioAssay data set” (2004)
